The text below walks through data of patent publication US20260042753A1 (Merck Patent GmbH, priority 2019, published 2026).

Where a name gives a salt, the structure may show the parent alone. Read-outs that look alike come from different tables or passages of the source.

The target of one assay is c-Kit(V654A) (Homo sapiens, UniProt P10721, V654A). Nature of the assay: c-Kit(V654A) assay. The format is biochemical. A digest of the protocol:
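Radiometric filter-binding read-out: after 3% phosphoric acid stop, peptide-incorporated 33P on filtermat scintillation-counted. Enzyme: human c-Kit V654A, residues 544–end, N-terminal GST fusion.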

For assay [1], the target named is mutant cKIT (560-576 and V654A) in GIST430/654 cell line (Homo sapiens (Human), UniProt P10721, DEL560-576/V654A). Put plainly: Cellular testing of cKIT mutant inhibitors: phospho-Y307-cKIT Luminex assay in GIST430/654 cells. The format is cell-based. The note with it: read-out: GIST 430/654 IC50. A digest of the protocol: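 Autophosphorylation of mutant cKIT at Y307 was quantified by a Luminex bead sandwich assay (total-cKIT capture, phosphospecific detection) after 45 min compound exposure in GIST430/654 cells, cultured in medium containing 100 nM imatinib. Signals were normalised to solvent (0.3% DMSO) controls and dose-response curves fitted for IC50.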

The mark [2] stands for this setting: Table 1, cKIT autophosphorylation, compounds 45 min.
Where [3] appears, read: Table 2, isoxazole derivatives presently described.
Where [4] appears, read: Table 2, corresponding triazole derivatives.

mutant cKIT (560-576 and V654A) in GIST430/654 cell line, sequence (P10721 other isoform, or with tags, fused parts or gaps V654A/del 1-25/del 560-576 limits assumed): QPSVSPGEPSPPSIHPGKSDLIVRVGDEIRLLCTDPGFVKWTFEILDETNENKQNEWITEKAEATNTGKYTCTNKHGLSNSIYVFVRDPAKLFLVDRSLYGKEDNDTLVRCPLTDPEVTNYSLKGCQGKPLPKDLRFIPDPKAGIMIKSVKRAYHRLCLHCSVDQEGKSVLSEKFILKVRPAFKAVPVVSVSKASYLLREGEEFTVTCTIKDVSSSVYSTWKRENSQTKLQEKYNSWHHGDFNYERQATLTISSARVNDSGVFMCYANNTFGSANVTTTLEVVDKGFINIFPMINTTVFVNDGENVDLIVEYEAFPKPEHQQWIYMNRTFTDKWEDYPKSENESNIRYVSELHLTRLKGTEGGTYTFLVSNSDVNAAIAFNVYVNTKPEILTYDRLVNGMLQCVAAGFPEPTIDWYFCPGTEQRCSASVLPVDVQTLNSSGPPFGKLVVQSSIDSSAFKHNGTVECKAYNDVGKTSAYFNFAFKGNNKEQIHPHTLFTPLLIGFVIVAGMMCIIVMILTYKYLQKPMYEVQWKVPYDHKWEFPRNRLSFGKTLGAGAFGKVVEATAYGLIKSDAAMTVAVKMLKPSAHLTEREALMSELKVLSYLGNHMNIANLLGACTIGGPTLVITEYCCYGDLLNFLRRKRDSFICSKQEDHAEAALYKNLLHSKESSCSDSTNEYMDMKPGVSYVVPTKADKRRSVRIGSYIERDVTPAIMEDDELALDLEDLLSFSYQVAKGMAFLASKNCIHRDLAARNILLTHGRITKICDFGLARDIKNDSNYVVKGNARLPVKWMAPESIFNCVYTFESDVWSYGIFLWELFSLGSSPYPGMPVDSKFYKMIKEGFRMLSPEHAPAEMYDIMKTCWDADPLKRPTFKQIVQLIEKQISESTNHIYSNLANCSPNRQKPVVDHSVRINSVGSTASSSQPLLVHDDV

In the case of `CCOc1cc2[nH]nc(-c3cc(-c4ccc(C(=O)N5CCN(C6COC6)CC5)cc4)no3)c2cc1F` [A229, 6-ethoxy-5-fluoro-3-(3-{4-[4-(oxetan-3-yl)piperazine-1-carbonyl]phenyl}-1,2-oxazol-5-yl)-1H-indazole], the IC50 on c-Kit(V654A) (Table 1, 200 μM ATP) came to 47 nM; in assay [1] (setting [2]), 1100 nM.
`COCCOc1cc2[nH]nc(-c3cc(-c4ccc(C5CCNCC5(C)C)cc4)no3)c2cc1F` (stereo not drawn) [A230, 3-{3-[4-(3,3-dimethyl-piperidin-4-yl)-phenyl]-isoxazol-5-yl}-5-fluoro-6-(2-methoxy-ethoxy)-1H-indazole]: the IC50 against c-Kit(V654A) (Table 1, 200 μM ATP) turned out to be 0.4 nM; in assay [1] (setting [2]), 110 nM.
As for `COCCOc1cc2[nH]nc(-c3cc(-c4ccc(C5CCN(C)CC5(C)C)cc4)no3)c2cc1F` (stereo not drawn) [A231, 5-fluoro-6-(2-methoxy-ethoxy)-3-{3-[4-(1,3,3-trimethyl-piperidin-4-yl)-phenyl]-isoxazol-5-yl}-1H-indazole], the IC50 against c-Kit(V654A) (Table 1, 200 μM ATP) was found to be 0.61 nM; in assay [1] (setting [2]), 52 nM.
On the same counts, the results for `[2H]C1([2H])NC([2H])([2H])C([2H])([2H])N(C(=O)c2ccc(-c3cc(-c4n[nH]c5cc(OCCOC)c(F)cc45)on3)cc2)C1([2H])[2H]` [A232, 5-fluoro-6-(2-methoxyethoxy)-3-(3-{4-[(2,2,3,3,5,5,6,6-^2H8)piperazine-1-carbonyl]phenyl}-1,2-oxazol-5-yl)-1H-indazole hydrochloride] are 0.09 nM and 100 nM.
For `[2H]C1([2H])N(C(=O)c2ccc(-c3cc(-c4n[nH]c5cc(OCCOC)c(F)cc45)on3)cc2)C([2H])([2H])C([2H])([2H])N(C2COC2)C1([2H])[2H]` [A233, 5-fluoro-6-(2-methoxyethoxy)-3-(3-{4-[4-(oxetan-3-yl)(2,2,3,3,5,5,6,6-^2H8)piperazine-1-carbonyl]phenyl}-1,2-oxazol-5-yl)-1H-indazole], the IC50 against c-Kit(V654A) (Table 1, 200 μM ATP) was found to be 1 nM; in assay [1] (setting [2]), 76 nM.
On the same counts, the results for `[2H]C1([2H])N(C(=O)c2ccc(-c3cc(-c4n[nH]c5cc(OCCO)c(F)cc45)on3)cc2)C([2H])([2H])C([2H])([2H])N(C2COC2)C1([2H])[2H]` [A234, 2-{[5-fluoro-3-(3-{4-[4-(oxetan-3-yl)(2,2,3,3,5,5,6,6-^2H8)piperazine-1-carbonyl]phenyl}-1,2-oxazol-5-yl)-1H-indazol-6-yl]oxy}ethan-1-ol] are 0.9 nM and 170 nM.
Take `COCCOc1cc2[nH]nc(-c3cc(-c4ccc(C(=O)N5CCOC[C@H]5C)cc4)no3)c2cc1F` [compound 114]: the IC50 against c-Kit(V654A) (setting [3]) was determined as 0.91 nM; in assay [1] (setting [3]), 56 nM.
With `COCCOc1cc2[nH]nc(-c3cc(-c4ccc(C(=O)N5CCC[C@H]5CO)cc4)no3)c2cc1F` [drawing 57, reference compound], the IC50 on c-Kit(V654A) (setting [4]) was 8.5 nM; in assay [1] (setting [4]) it was 910 nM.
Take `COCCOc1cc2[nH]nc(-c3cn(-c4ccc(C(=O)N5CCOC[C@@H]5C)cc4)nn3)c2cc1F` [reference compound]: the IC50 against c-Kit(V654A) (setting [4]) amounted to 6.9 nM; in assay [1] (setting [4]), 230 nM.
Taken in the same sequence, the figures for `COCCOc1cc2[nH]nc(-c3cn(-c4ccc(C(=O)N5CCC[C@H]5C(C)(C)O)cc4)nn3)c2cc1F` [reference compound] were 2.5 nM and 79 nM.
For the molecule `COCCOc1cc2[nH]nc(-c3cn(-c4ccc(C(=O)N5CCN(C)CC5)cc4)nn3)c2cc1F` [reference compound], the values for the IC50 (on c-Kit(V654A) (setting [4]); in assay [1] (setting [4])) were 15 nM and 840 nM, respectively.
Consider `COCCOc1cc2[nH]nc(-c3cn(-c4ccc(C(=O)N5CCOC[C@H]5C)cc4)nn3)c2cc1F` [reference compound], for which the figures for the IC50 (at c-Kit(V654A) (setting [4]); in assay [1] (setting [4])) were 4.3 nM and 230 nM, respectively.
Taken in the same sequence, the figures for `COCCOc1ccc2c(-c3cn(-c4ccc(C(=O)N5CCN(C)C[C@@H]5C)cc4)nn3)n[nH]c2c1` [reference compound] were 6.1 nM and 320 nM.
On the same counts, the results for `COCCOc1cc2[nH]nc(-c3cn(-c4ccc(C5CCNCC5(C)C)cc4)nn3)c2cc1F` (stereo not drawn) [reference compound] are 21 nM and 120 nM.
On the same counts, the results for `COCCOc1cc2[nH]nc(-c3cn(-c4ccc(N5CCN(C)CC5)cc4)nn3)c2cc1F` [reference compound] are 15 nM and 1000 nM.
In the case of `COCCOc1cc2[nH]nc(-c3cn(-c4ccc(C(=O)N5CC(C#N)C5)cc4)nn3)c2cc1F` [reference compound], the IC50 on c-Kit(V654A) (setting [4]) was found to be 13 nM; in assay [1] (setting [4]) it was 2200 nM.
For the molecule `COCCOc1cc2[nH]nc(-c3cn(-c4ccc(C(=O)N5CC(F)C5)cc4)nn3)c2cc1F` [reference compound], the IC50 against c-Kit(V654A) (setting [4]) stood at 11 nM; in assay [1] (setting [4]) it was 580 nM.
On the same counts, the results for `COCCOc1cc2[nH]nc(-c3cn(-c4ccc(C(=O)N5CC[C@H]5C(C)(C)O)cc4)nn3)c2cc1F` [reference compound] are 7.5 nM and 240 nM.
Take `COCCOc1cc2[nH]nc(-c3cn(-c4ccc(C(=O)N5CC(N6CCOCC6)C5)c(C)c4)nn3)c2cc1F` [reference compound]: the IC50 against c-Kit(V654A) (setting [4]) was 13 nM; in assay [1] (setting [4]) it was 870 nM.
Turning to `COCCOc1cc2[nH]nc(-c3cn(-c4ccc(C(=O)N5CC(N6CCOCC6)C5)c(F)c4)nn3)c2cc1F` [reference compound], the IC50 against c-Kit(V654A) (setting [4]) came out at 20 nM; in assay [1] (setting [4]), 700 nM.
Consider `COCCOc1cc2[nH]nc(-c3cn(-c4ccc(C(=O)N5Cc6ccncc6C5)cc4)nn3)c2cc1F` [reference compound], for which the IC50 on c-Kit(V654A) (setting [4]) stood at 2.3 nM; in assay [1] (setting [4]), 140 nM.
On the same counts, the results for `COCCOc1cc2[nH]nc(-c3cn(-c4ccc(C(=O)N5C[C@H]6COC[C@H]6C5)cc4)nn3)c2cc1F` [reference compound] are 5 nM and 470 nM.
Take `COCCOc1cc2[nH]nc(-c3cn(-c4ccc(C(=O)N5CC(c6ccncc6)C5)cc4)nn3)c2cc1F` [reference compound]: the IC50 stood at 2.6 nM against c-Kit(V654A) (setting [4]) and 160 nM in assay [1] (setting [4]).
For the molecule `COCCOc1cc2[nH]nc(-c3cn(-c4ccc(C(=O)N5CCN(C6COC6)CC5)cc4)nn3)c2cc1F` [reference compound], the IC50 against c-Kit(V654A) (setting [4]) worked out at 7.8 nM; in assay [1] (setting [4]), 790 nM.
